The record followed here is ChEMBL document CHEMBL1201862, “PubChem BioAssay data set” (2004).

A word on the IC50: it is the point on the concentration scale where inhibition reaches its midpoint. A word on the Ki: it is a measure of affinity in units of concentration, obtained from inhibition or displacement. In general, CC50 refers to the concentration giving 50% cytotoxicity.

SMILES strings stand for the structures. The source made the active and inactive calls.

What all share (format): functional
One assay deals with T1, Caspase-3 (Homo sapiens, UniProt P42574).
T1 sequence (P42574 whole entry): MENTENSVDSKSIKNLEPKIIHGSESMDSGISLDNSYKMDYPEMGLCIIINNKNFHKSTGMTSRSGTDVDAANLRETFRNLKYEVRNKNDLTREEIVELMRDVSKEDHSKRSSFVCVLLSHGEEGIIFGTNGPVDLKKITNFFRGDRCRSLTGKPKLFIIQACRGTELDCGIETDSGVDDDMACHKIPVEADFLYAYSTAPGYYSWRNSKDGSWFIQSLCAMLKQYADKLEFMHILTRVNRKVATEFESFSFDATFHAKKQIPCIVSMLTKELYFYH
Put plainly: inhibition of recombinant caspase-3 activity – biochemical, luminescence, set 2, selectivity assay for SENP protease inhibitor project, SAR follow-up (AID 588599).

Assay [1] concerns the target T2, Sentrin-specific protease 7 (Homo sapiens, UniProt Q9BQF6).
T2 sequence (Q9BQF6 whole entry): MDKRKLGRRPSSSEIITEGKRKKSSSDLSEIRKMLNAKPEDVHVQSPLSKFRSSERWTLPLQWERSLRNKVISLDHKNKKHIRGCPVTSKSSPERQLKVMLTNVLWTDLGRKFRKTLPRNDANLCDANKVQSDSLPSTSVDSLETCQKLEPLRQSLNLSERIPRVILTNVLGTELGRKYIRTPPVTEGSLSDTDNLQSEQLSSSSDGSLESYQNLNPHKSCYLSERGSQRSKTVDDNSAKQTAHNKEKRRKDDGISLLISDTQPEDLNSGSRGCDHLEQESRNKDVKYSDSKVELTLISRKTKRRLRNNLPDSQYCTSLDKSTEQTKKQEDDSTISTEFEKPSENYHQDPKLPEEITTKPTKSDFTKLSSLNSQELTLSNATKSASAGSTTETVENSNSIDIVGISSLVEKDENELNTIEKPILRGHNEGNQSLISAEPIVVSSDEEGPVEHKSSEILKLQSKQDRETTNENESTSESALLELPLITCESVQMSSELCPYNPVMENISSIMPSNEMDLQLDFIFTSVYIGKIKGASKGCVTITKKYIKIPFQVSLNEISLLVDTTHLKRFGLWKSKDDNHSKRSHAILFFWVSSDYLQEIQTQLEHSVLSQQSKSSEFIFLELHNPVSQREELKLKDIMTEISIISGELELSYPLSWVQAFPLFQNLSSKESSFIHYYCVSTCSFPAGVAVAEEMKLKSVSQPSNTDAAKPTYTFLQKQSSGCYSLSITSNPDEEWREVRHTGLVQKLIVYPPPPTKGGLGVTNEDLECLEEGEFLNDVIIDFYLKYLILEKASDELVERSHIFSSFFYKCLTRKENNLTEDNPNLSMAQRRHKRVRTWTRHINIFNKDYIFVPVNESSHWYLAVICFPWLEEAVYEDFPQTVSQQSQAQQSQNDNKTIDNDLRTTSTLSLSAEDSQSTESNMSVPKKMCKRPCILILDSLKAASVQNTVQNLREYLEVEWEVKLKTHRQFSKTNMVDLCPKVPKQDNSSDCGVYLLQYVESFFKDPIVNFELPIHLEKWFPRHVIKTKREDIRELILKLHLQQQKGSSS
Briefly: inhibition of human SENP7 cleavage activity – biochemical, luminescence, set 2, SAR follow-up (AID 588600).

For assay [2], the target named is T3, Sentrin-specific protease 6 (Homo sapiens, UniProt Q9GZR1).
T3 sequence (Q9GZR1 whole entry): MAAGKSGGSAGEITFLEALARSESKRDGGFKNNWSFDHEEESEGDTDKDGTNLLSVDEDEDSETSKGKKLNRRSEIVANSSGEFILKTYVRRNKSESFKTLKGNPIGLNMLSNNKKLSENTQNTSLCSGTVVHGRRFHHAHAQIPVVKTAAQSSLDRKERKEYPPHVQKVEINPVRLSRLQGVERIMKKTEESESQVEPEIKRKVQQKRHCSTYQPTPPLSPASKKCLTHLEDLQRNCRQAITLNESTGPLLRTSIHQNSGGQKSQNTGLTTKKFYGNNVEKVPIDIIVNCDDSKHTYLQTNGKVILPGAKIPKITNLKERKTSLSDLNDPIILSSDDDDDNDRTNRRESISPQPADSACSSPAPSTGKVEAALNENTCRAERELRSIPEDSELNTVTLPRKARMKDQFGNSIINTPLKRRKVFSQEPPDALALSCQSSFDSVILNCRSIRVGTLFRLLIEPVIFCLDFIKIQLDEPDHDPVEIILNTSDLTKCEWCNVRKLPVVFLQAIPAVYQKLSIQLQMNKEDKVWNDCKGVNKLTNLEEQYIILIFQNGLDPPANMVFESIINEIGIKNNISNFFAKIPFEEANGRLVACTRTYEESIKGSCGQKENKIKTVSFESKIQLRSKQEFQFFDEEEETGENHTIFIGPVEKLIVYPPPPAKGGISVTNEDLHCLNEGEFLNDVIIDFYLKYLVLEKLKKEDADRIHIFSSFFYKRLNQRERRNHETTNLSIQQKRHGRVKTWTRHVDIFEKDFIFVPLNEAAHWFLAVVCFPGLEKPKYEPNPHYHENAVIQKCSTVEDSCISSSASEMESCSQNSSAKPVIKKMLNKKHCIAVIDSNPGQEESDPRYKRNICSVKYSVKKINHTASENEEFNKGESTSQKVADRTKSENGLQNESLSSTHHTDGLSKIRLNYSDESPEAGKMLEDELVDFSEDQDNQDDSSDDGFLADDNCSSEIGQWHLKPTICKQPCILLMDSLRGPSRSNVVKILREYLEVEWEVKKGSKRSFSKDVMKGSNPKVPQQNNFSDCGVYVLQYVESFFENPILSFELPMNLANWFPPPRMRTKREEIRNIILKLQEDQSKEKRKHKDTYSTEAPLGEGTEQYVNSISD
Put plainly: inhibition of human SENP6 catalytic domain – biochemical, luminescence, set 2, SAR follow-up (AID 588598).

Assay [3] deals with T4, Sentrin-specific protease 8 (Homo sapiens, UniProt Q96LD8).
T4 sequence (Q96LD8 whole entry): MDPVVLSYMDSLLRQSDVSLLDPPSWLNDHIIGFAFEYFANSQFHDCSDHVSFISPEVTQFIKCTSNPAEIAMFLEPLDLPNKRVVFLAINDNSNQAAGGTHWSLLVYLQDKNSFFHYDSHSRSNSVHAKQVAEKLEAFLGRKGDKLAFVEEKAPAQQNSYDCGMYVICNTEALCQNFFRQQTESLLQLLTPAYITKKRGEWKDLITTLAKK
Put plainly: inhibition of sentrin protease 8 – biochemical, luminescence, set 2, SAR follow-up (AID 588601).

The next assay addresses Focal adhesion kinase 1 (Homo sapiens, UniProt Q05397).
Assay [4] has as its target Cyclin-dependent kinase 19 (Homo sapiens, UniProt Q9BWU1). Put plainly: Navigating the Kinome. Panel member name: CDC2L6.
Assay [5] is described as follows: HepG2 cell cytotoxicity, cytotoxicity control, set 6 (AID 602432). The following applies: Mycobacterium tuberculosis.
Assay [6] in a line: THP-1 cell cytotoxicity, cytotoxicity control, set 6 (AID 602433). The following applies: Mycobacterium tuberculosis.
Assay [7] in a line: viability loss in Vero cells – cell-based, purified and synthesized samples, set 8, cytotoxicity control for M. tuberculosis inhibitor project (AID 602431). The following applies: Mycobacterium tuberculosis.

Cyclin-dependent kinase 19, sequence (Q9BWU1 whole entry): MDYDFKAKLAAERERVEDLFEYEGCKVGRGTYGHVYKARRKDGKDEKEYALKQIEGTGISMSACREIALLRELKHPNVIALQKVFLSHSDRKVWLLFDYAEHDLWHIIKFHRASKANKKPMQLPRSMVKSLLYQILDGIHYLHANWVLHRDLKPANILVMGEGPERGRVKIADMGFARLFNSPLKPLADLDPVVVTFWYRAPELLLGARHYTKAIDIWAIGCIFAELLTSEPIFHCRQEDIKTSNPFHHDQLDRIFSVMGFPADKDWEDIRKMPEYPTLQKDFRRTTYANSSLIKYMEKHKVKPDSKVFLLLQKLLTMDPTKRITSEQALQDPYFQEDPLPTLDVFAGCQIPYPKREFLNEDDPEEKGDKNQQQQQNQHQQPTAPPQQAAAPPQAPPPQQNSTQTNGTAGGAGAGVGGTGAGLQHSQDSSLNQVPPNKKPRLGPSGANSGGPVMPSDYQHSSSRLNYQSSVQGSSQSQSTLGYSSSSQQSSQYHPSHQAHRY
Focal adhesion kinase 1, sequence (Q05397 whole entry): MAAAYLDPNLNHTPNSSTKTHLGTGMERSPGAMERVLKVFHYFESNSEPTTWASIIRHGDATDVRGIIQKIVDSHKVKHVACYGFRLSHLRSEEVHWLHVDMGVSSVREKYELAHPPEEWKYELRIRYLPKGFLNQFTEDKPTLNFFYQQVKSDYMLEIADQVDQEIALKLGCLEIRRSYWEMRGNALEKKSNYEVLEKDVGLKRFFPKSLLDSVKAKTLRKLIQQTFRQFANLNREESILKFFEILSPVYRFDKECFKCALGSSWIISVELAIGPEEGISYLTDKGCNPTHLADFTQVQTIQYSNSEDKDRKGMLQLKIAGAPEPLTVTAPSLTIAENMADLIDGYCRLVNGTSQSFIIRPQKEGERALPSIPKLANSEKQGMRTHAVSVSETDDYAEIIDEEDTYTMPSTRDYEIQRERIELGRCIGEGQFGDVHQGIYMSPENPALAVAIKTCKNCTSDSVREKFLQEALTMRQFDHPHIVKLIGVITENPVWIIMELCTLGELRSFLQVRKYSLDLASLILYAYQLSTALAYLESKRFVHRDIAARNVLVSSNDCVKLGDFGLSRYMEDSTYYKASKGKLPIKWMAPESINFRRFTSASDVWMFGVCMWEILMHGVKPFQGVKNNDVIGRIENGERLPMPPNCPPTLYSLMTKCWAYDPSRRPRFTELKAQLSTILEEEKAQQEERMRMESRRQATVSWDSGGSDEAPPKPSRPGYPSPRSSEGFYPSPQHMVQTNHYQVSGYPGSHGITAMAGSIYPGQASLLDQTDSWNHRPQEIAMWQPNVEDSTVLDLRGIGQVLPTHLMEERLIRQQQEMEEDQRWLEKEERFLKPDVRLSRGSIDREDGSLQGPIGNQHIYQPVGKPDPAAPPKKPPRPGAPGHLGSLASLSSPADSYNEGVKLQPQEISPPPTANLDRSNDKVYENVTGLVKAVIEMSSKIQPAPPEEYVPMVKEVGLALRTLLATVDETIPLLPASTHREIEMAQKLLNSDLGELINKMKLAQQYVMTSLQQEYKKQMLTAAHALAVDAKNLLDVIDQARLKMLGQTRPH

Consider `Cc1[nH]c2ccccc2c1C(=O)C(=O)N1CCCCCC1`, for which the IC50 (on Caspase-3; in assay [1]; in assay [2]; in assay [3]) was > 99 µM (inactive) throughout.
Take `COc1cccc(C(=O)Nc2cccc(-c3nc4sccn4c3-c3ccnc(Nc4ccc(N5CCOCC5)cc4)n3)c2)c1`: the Ki is 0.631 µM (active) at Focal adhesion kinase 1 and 10 µM (active) in assay [4].
For the compound `O=C(NCc1ccc(C(=O)N2CCC(c3ccccc3)CC2)cc1)NC1CCCCC1`, the CC50 was > 50 µM (inconclusive) in assay [5], 65.8 µM (active) in assay [6] and 82.5 µM (active) in assay [7].
